The record followed here is paper PMC10535741, “Styrylpyridinium Derivatives for Fluorescent Cell Imaging” (Pharmaceuticals, 2023).

Data set [1] can be described thus: Photoluminescence quantum yield (PLQY). It counts as physicochemical. The conditions noted are these: DMSO solution. As to the method: Photoluminescence quantum yield (PLQY) values for the DMSO solution of compounds 6a–g were measured (Table 3, entry 4). […] The PLQY values for the SP derivatives 6f,g (each with an N-dimethylaminophenyl moiety) were 1.6% and 1.4%, respectively. The PLQY value for the SP derivative 6c (with a 4-dimethylaminophenyl moiety) was only 0.1%. The PLQY values for the SP derivatives 6d,e (each with a julolidinyl moiety) were 0.5% and 0.7%, respectively. Previously, we designed naphthalene-2-yl)vinyl)pyridinium groups containing 1,4-dihydropyridine amphiphile, for which the PLQY value for the EtOH solution was 1% [20].

Data set [2] is described as follows: MTT cytotoxicity assay, BHK-21. In kind it is cell-based, Syrian hamster. The conditions noted are these: Syrian hamster. From the text:
(§1) For selected compounds, 6a–6f, we performed a determination of the cytotoxicity in a wider variety of cancer and non-cancerous cell lines (see Table S2, Supplementary Materials) in order to learn the characteristic features of selectivity or the similarity of biological properties.
(§2) The HT-1080 (human connective tissue fibrosarcoma, ATCC® CCL-121™), MH-22A (mouse hepatocarcinoma, ECACC Cat. No. 96121721), A-549 (human lung carcinoma, ATCC® CCL-185™), NIH3T3 (Swiss Albino mouse embryo fibroblast, ECACC Cat. No. 93061524), Hek293 (human embryonic kidney, ATCC® CRL-1573™), BHK-21 (Syrian hamster kidney, ATCC® CCL-10™), A-431 (human epidermoid carcinoma, ATCC® CRL-1555™), Saos-2 (human osteosarcoma, ATCC® HTB-85™), HeLa (human epitheloid cervix carcinoma, ATCC® CCL-2™), U937 (human myeloid leukaemia, ATCC® CRL-1593.2™), C6 (rat glioma, ATCC® CCL-107™), and B16-F10 (murine melanoma, ATCC® CRL-6475™) cell lines were obtained from the American Type Culture Collection (ATCC) and European Collection of Authenticated Cell Cultures (ECACC).
(§3) HT-1080, MH-22A, A-549, NIH3T3, BHK-21, A-431, HeLa, and B16-F10 cells were cultured in Dulbecco’s Modified Eagle’s Medium (DMEM) with 2 mM glutamine and 10% foetal bovine serum (FBS). Hek293 cells were cultured in Eagle’s Minimum Essential Medium with 10% foetal bovine serum. U937 cells were cultured in RPMI-1640 Medium with 2 mM glutamine and 10% foetal bovine serum. C6 cells were cultured in Ham’s F12 Medium with 2 mM glutamine and 10% foetal bovine serum. Saos-2 cells were cultured in McCoy’s 5a Medium with 2 mM glutamine and 10% foetal bovine serum. The cells were incubated at 37 °C with 5% CO2, 95% air, and complete humidity. Once ~90% confluence was reached, they were detached using 0.05% trypsin/EDTA and counted. The cells were plated at optimally determined densities for the logarithmic phase of growth. These cells were then suspended at a concentration of 4000 cells/well for HT-1080, MH-22A, A-549, NIH3T3, BHK-21, A-431, HeLa, B16-F10, Hek293, and Saos-2 cells and a concentration of 9000 cells/well for U937, C6, Hek293, and GM08402 cells and added onto a 96-well plate. For background absorption, some wells remained cell free, i.e., as a blank control. Cells were incubated for 72 h at 37 °C and 5% CO2 where they were exposed to a media containing serial dilutions of the investigated compounds (n = 3). Cell viability was measured using the 3-(4,5-dimethylthiazol-2-yl)-2,5-diphenyl-tetrazolium bromide (MTT) assay. In brief, after incubating with compounds, the culture medium was removed and fresh medium with 0.2 mg/mL MTT was added to each well of the plate. After incubation (3 h, 37 °C, 5% CO2), the medium with MTT solution was removed and replaced with 200 µL DMSO and 25 µL Sorenson’s glycine buffer (glycine 0.1 M, NaCl 0.1 M, pH: 10.5 with 0.1 M NaOH). The plate was shaken for 15 min at room temperature and the optical density (OD) of the wells was determined using a multichannel spectrophotometer (Thermo Scientific Multiskan EX) at 540 nm. The quantity of the control cells was taken in calculations as 100%. The IC50 value was calculated using the program Graph Pad Prism® 3.0.
(§4) The HT-1080 (human connective tissue fibrosarcoma, ATCC® CCL-121™), MH-22A (mouse hepatocarcinoma, ECACC Cat.No. 96121721), A-549 (human lung carcinoma, ATCC® CCL-185™), NIH 3T3 (mouse Swiss Albino embryo fibroblast, ECACC Cat.No. 93061524), Hek293 (human embryonic kidney, ATCC® CRL-1573™), BHK-21 (hamster Syrian kidney, ATCC® CCL-10™), A-431 (human epidermoid carcinoma, ATCC® CRL-1555™), Saos-2 (human oste osarcoma, ATCC® HTB-85™) HeLa (human epitheloid cervix carcinoma, ATCC® CCL-2™), U937 (human myeloid leukaemia, ATCC® CRL-1593.2™), C6 (rat glioma, ATCC® CCL-107™), B16-F10 (murine melanoma, ATCC® CRL-6475™) cell lines were obtained from American Type Culture Collection (ATCC) and European Collection of Authenticated Cell Cultures […]
(§5) Table S2. […]

Data set [3] in a line: in vitro. In kind it is cell-based, mouse. The note with it: mouse.
Source text: as §1, §2, §3, §4, §5

Data set [4] is described as follows: in vitro. It counts as cell-based, human. The note with it: human, MTT, 72 h.
Source text: as §1, §2, §3, §4, §5

The mark [5] stands for this setting: non-cancerous cell line, MTT, 72 h, read-out: Cytotoxicity IC50 NIH3T3.
The mark [6] stands for this setting: cancer cell line, read-out: Cytotoxicity IC50 A-431.
The mark [7] stands for this setting: cancer cell line, read-out: Cytotoxicity IC50 A-549.
[8] abbreviates: cancer cell line, read-out: Cytotoxicity IC50 HeLa.
Setting [9] is: cancer cell line, read-out: Cytotoxicity IC50 Saos-2.
Where [10] appears, read: cancer cell line, read-out: Cytotoxicity IC50 U937.
Where [11] appears, read: non-cancerous cell line, read-out: Cytotoxicity IC50 Hek-293.

As usually defined, the IC50 is the concentration at which inhibition is half-maximal. Take `CCCCCCCCCCCC[n+]1ccc(C=Cc2cc(OC)c(OC)c(OC)c2)cc1.[Br-]` [Compound 6a, 4-(3,4,5-trimethoxystyryl)-N-dodecylpyridinium bromide]: in data set [1], the “PLQY, %” value came to 15.1%. Besides, the IC50 at 72 h in data set [2] (non-cancerous cell line, MTT, 72 h, read-out: Cytotoxicity IC50 BHK-21) was 1.01 µg/mL; in data set [3] (setting [5]), 1.23 µg/mL; in data set [4] (setting [6]) it was 0.87 µg/mL; in data set [4] (setting [7]), 0.87 µg/mL; in data set [4] (setting [8]) it was 0.59 µg/mL; in data set [4] (setting [9]), 0.37 µg/mL. The IC50 at 72 h in data set [4] (setting [10]) came out at 1.01 µg/mL; in data set [4] (setting [11]), 0.22 µg/mL.

Turning to `CCCCCCCCCCCCCCCC[n+]1ccc(C=Cc2cc(OC)c(OC)c(OC)c2)cc1.[Br-]` [Compound 6b], the “PLQY, %” value in data set [1] was 12.2%.

With `CCCCCCCCCCCCCCCC[n+]1ccc(C=CC=Cc2ccc(OC)cc2)cc1.[Br-]` [Compound 6c, 1-hexadecyl-4-(4-(4-methoxyphenyl)buta-1,3-dien-1-yl)pyridin-1-ium bromide], the “PLQY, %” value in data set [1] is 0.1%. Moreover, the IC50 at 72 h in data set [2] was 0.35 µg/mL; in data set [3], 0.24 µg/mL.

As for `CCCCCCCCCCCC[n+]1ccc(C=Cc2cc3c4c(c2)CCCN4CCC3)cc1.[Br-]` [Compound 6d, 1-dodecyl-4-(2-(2,3,6,7-tetrahydro-1H,5H-pyrido[3,2,1-ij]quinolin-9-yl)vinyl)pyridin-1-ium bromide], the “PLQY, %” value in data set [1] is given as 0.5%. Further, the IC50 at 72 h stood at 0.082 µg/mL in data set [2]; 0.056 µg/mL in data set [3] (setting [5]); 0.098 µg/mL in data set [4] (setting [6]); 0.055 µg/mL in data set [4] (setting [7]); 0.055 µg/mL in data set [4] (setting [8]); 0.79 µg/mL in data set [4] (setting [9]). In addition, the IC50 at 72 h is 0.044 µg/mL in data set [4] (setting [10]) and 0.012 µg/mL in data set [4] (setting [11]).

For `CCCCCCCCCCCCCCCC[n+]1ccc(C=CC=Cc2cc3c4c(c2)CCCN4CCC3)cc1.[Br-]` [Compound 6e, 1-hexadecyl-4-(4-(2,3,6,7-tetrahydro-1H,5H-pyrido[3,2,1-ij]quinolin-9-yl)buta-1,3-dien-1-yl)pyridin-1-ium bromide], in data set [1], the “PLQY, %” value worked out at 0.7%. Also, the half-inhibitory concentration (IC50) at 72 h in data set [2] was 2.7 µg/mL; in data set [3] (setting [5]), 3.2 µg/mL; in data set [4] (setting [6]), 1.9 µg/mL; in data set [4] (setting [7]), 3 µg/mL; in data set [4] (setting [8]), 1.3 µg/mL; in data set [4] (setting [9]), 3.6 µg/mL. In addition, the IC50 at 72 h in data set [4] (setting [10]) came to 2.4 µg/mL; in data set [4] (setting [11]), 1.5 µg/mL.
